# From ChEMBL document CHEMBL4507279, “Data for DCP probe BI-9627” (2021)
# How the values were obtained:
# [1] = target: Serine/threonine-protein kinase pim-3 (Homo sapiens) (UniProt Q86V86); settings: Compound concentration 1000.0 nM
# [2] = system: Tyrosine-protein kinase ABL1 (Homo sapiens), P00519 [Y253F]; settings: Compound concentration 1000.0 nM
# [3] = target: Citron Rho-interacting kinase (Homo sapiens) (UniProt O14578); settings: Compound concentration 1000.0 nM
# [4] = system: Mast/stem cell growth factor receptor Kit (Homo sapiens), P10721 [L576P]; settings: Compound concentration 1000.0 nM
# [5] = target: Ephrin type-A receptor 5 (Homo sapiens) (UniProt P54756); settings: Compound concentration 1000.0 nM
# [6] = target: Mitogen-activated protein kinase kinase kinase 4 (Homo sapiens) (UniProt Q9Y6R4); settings: Compound concentration 1000.0 nM
# [7] = target: Dual specificity protein kinase CLK4 (Homo sapiens) (UniProt Q9HAZ1); settings: Compound concentration 1000.0 nM
# [8] = target: RAC-beta serine/threonine-protein kinase (Homo sapiens) (UniProt P31751); settings: Compound concentration 1000.0 nM
# [9] = target: Fibroblast growth factor receptor 1 (Homo sapiens) (UniProt P11362); settings: Compound concentration 1000.0 nM
# [10] = target: Ribosomal protein S6 kinase alpha-2 (Homo sapiens) (UniProt Q15349); settings: Compound concentration 1000.0 nM
# [11] = target: Megakaryocyte-associated tyrosine-protein kinase (Homo sapiens) (UniProt P42679); settings: Compound concentration 1000.0 nM
# [12] = target: Serine/threonine-protein kinase WNK4 (Homo sapiens) (UniProt Q96J92); settings: Compound concentration 1000.0 nM
# [13] = target: Ephrin type-B receptor 1 (Homo sapiens) (UniProt P54762); settings: Compound concentration 1000.0 nM
# [14] = target: Serine/threonine-protein kinase 17A (Homo sapiens) (UniProt Q9UEE5); settings: Compound concentration 1000.0 nM
# [15] = target: Serine/threonine-protein kinase N2 (Homo sapiens) (UniProt Q16513); settings: Compound concentration 1000.0 nM
# [16] = target: Serine/threonine-protein kinase MARK2 (Homo sapiens) (UniProt Q7KZI7); settings: Compound concentration 1000.0 nM
# [17] = target: Receptor-interacting serine/threonine-protein kinase 4 (Homo sapiens) (UniProt P57078); settings: Compound concentration 1000.0 nM
# [18] = target: Ribosomal protein S6 kinase alpha-1 (Homo sapiens) (UniProt Q15418); settings: Compound concentration 1000.0 nM
# [19] = target: Serine/threonine-protein kinase LATS1 (Homo sapiens) (UniProt O95835); settings: Compound concentration 1000.0 nM
# [20] = target: Sodium/hydrogen exchanger 3 (Homo sapiens, UniProt P48764); test: pHi change assay with SLC9A3
# [21] = target: Serine/threonine-protein kinase Sgk1 (Homo sapiens) (UniProt O00141); settings: Compound concentration 1000.0 nM
# [22] = target: cAMP-dependent protein kinase catalytic subunit beta (Homo sapiens) (UniProt P22694); settings: Compound concentration 1000.0 nM
# [23] = system: Epidermal growth factor receptor (Homo sapiens), P00533 [UNDEFINED MUTATION]; settings: Compound concentration 1000.0 nM
# [24] = target: Insulin receptor-related protein (Homo sapiens) (UniProt P14616); settings: Compound concentration 1000.0 nM
# [25] = target: Serine/threonine-protein kinase 25 (Homo sapiens) (UniProt O00506); settings: Compound concentration 1000.0 nM
# [26] = target: Cyclin-dependent kinase 14 (Homo sapiens) (UniProt O94921); settings: Compound concentration 1000.0 nM
# [27] = target: Activin receptor type-2B (Homo sapiens) (UniProt Q13705); settings: Compound concentration 1000.0 nM
# [28] = target: STE20/SPS1-related proline-alanine-rich protein kinase (Homo sapiens) (UniProt Q9UEW8); settings: Compound concentration 1000.0 nM
# [29] = target: Vascular endothelial growth factor receptor 1 (Homo sapiens) (UniProt P17948); settings: Compound concentration 1000.0 nM
# [30] = target: Activin receptor type-1-like (Homo sapiens) (UniProt P37023); settings: Compound concentration 1000.0 nM
# [31] = system: Tyrosine-protein kinase ABL1 (Homo sapiens), P00519 [T315I]; settings: Compound concentration 1000.0 nM
# [32] = target: Beta-adrenergic receptor kinase 1 (Homo sapiens) (UniProt P25098); settings: Compound concentration 1000.0 nM
# [33] = target: 5'-AMP-activated protein kinase catalytic subunit alpha-2 (Homo sapiens) (UniProt P54646); settings: Compound concentration 1000.0 nM
# [34] = target: Dual specificity mitogen-activated protein kinase kinase 7 (Homo sapiens) (UniProt O14733); settings: Compound concentration 1000.0 nM
# [35] = target: Phosphatidylinositol 4-phosphate 5-kinase type-1 alpha (Homo sapiens) (UniProt Q99755); settings: Compound concentration 1000.0 nM
# [36] = target: Serine/threonine-protein kinase SIK1 (Homo sapiens) (UniProt P57059); settings: Compound concentration 1000.0 nM
# [37] = target: High affinity nerve growth factor receptor (Homo sapiens) (UniProt P04629); settings: Compound concentration 1000.0 nM
# [38] = target: Serine/threonine-protein kinase PRP4 homolog (Homo sapiens) (UniProt Q13523); settings: Compound concentration 1000.0 nM
# [39] = target: Calcium/calmodulin-dependent protein kinase type II subunit gamma (Homo sapiens) (UniProt Q13555); settings: Compound concentration 1000.0 nM
# [40] = target: Tyrosine-protein kinase Fes/Fps (Homo sapiens) (UniProt P07332); settings: Compound concentration 1000.0 nM
# [41] = target: SRSF protein kinase 2 (Homo sapiens) (UniProt P78362); settings: Compound concentration 1000.0 nM
# [42] = system: Phosphatidylinositol 4,5-bisphosphate 3-kinase catalytic subunit alpha isoform (Homo sapiens), P42336 [E545K]; settings: Compound concentration 1000.0 nM
# [43] = target: Serine/threonine-protein kinase 35 (Homo sapiens) (UniProt Q8TDR2); settings: Compound concentration 1000.0 nM
# [44] = system: Mast/stem cell growth factor receptor Kit (Homo sapiens), P10721 [D816H]; settings: Compound concentration 1000.0 nM
# [45] = system: Leucine-rich repeat serine/threonine-protein kinase 2 (Homo sapiens), Q5S007 [G2019S]; settings: Compound concentration 1000.0 nM
# Chain of Phosphatidylinositol 4-phosphate 5-kinase type-1 alpha (Homo sapiens) (Q99755 whole entry): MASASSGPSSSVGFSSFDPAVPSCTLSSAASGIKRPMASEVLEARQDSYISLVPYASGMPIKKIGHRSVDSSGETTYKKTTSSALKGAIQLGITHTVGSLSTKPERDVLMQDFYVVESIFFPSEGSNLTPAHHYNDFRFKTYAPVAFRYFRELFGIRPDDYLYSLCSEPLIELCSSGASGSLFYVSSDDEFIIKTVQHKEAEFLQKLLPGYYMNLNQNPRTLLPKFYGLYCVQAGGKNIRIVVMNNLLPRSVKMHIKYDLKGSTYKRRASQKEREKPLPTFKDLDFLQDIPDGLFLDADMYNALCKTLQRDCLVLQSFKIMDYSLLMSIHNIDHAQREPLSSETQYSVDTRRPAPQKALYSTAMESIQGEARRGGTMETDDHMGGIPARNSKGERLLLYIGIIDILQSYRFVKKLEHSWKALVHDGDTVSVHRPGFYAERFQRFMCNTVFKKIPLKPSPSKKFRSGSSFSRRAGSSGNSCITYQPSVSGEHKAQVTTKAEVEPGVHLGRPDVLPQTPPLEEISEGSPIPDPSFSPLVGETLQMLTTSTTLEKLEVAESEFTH
# Chain of Mast/stem cell growth factor receptor Kit (Homo sapiens), P10721 [D816H] (P10721 whole entry D816H): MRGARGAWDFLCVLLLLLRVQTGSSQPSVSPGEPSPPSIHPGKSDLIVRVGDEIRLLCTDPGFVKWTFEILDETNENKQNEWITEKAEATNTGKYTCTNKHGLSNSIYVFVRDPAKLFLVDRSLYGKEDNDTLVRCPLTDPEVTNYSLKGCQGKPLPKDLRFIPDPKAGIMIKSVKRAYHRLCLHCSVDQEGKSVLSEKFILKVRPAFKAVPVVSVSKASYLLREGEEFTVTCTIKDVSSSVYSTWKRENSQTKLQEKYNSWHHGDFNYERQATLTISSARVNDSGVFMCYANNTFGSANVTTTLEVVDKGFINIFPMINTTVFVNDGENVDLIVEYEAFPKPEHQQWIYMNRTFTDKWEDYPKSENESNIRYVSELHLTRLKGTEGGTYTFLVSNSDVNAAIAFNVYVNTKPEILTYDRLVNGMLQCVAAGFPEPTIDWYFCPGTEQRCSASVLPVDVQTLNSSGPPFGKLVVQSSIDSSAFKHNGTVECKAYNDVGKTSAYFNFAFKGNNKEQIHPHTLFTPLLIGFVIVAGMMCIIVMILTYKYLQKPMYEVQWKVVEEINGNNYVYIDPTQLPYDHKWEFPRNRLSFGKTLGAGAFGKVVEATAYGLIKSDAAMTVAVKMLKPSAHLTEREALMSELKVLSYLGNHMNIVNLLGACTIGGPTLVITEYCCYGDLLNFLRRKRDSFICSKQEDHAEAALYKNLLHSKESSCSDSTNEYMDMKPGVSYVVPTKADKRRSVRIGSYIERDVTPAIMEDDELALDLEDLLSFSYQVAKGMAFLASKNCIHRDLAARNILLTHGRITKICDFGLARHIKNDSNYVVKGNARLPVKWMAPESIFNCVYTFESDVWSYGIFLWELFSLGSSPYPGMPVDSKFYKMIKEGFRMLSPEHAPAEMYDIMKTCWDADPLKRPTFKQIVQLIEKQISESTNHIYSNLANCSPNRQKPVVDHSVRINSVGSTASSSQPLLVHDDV
# Chain of Ephrin type-A receptor 5 (Homo sapiens) (P54756 whole entry): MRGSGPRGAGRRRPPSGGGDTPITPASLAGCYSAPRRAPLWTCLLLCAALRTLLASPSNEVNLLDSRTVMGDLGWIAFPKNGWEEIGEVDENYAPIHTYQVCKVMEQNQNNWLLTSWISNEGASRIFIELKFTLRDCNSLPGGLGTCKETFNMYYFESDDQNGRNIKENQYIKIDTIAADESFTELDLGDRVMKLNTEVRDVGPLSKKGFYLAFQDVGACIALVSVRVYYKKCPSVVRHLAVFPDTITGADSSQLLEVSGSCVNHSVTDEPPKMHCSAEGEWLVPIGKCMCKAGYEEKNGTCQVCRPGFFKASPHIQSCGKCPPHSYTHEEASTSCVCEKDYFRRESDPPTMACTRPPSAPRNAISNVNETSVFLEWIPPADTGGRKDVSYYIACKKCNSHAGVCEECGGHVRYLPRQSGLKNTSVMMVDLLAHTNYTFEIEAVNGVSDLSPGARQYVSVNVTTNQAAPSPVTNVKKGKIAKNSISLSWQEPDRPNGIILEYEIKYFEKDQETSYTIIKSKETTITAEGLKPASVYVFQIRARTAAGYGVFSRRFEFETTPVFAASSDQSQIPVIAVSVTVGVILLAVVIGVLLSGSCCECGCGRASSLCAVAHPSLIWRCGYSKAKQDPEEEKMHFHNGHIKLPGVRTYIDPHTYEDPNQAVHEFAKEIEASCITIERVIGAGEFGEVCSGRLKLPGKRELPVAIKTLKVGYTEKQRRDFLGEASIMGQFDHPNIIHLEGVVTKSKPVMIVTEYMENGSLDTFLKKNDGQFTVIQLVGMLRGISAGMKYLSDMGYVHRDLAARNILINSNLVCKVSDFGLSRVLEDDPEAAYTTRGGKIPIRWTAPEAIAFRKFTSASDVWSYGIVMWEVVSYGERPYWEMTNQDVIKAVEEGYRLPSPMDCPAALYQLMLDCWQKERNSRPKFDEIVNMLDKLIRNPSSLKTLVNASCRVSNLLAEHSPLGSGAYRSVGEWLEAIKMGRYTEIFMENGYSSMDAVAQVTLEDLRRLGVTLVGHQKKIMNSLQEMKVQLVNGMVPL
# Chain of RAC-beta serine/threonine-protein kinase (Homo sapiens) (P31751 whole entry): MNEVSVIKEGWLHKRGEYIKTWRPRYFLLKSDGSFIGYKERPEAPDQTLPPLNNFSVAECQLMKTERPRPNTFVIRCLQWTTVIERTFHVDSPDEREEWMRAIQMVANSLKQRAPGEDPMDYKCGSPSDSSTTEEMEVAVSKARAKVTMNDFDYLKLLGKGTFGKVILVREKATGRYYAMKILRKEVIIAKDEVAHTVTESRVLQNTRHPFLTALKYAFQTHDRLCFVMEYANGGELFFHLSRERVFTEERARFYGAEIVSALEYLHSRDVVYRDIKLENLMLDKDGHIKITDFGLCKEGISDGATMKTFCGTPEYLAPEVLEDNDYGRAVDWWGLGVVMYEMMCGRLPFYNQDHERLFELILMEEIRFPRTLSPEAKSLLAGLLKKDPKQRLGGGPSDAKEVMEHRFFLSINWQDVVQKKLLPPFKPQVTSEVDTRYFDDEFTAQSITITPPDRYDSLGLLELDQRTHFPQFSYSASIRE
# Chain of Vascular endothelial growth factor receptor 1 (Homo sapiens) (P17948 whole entry): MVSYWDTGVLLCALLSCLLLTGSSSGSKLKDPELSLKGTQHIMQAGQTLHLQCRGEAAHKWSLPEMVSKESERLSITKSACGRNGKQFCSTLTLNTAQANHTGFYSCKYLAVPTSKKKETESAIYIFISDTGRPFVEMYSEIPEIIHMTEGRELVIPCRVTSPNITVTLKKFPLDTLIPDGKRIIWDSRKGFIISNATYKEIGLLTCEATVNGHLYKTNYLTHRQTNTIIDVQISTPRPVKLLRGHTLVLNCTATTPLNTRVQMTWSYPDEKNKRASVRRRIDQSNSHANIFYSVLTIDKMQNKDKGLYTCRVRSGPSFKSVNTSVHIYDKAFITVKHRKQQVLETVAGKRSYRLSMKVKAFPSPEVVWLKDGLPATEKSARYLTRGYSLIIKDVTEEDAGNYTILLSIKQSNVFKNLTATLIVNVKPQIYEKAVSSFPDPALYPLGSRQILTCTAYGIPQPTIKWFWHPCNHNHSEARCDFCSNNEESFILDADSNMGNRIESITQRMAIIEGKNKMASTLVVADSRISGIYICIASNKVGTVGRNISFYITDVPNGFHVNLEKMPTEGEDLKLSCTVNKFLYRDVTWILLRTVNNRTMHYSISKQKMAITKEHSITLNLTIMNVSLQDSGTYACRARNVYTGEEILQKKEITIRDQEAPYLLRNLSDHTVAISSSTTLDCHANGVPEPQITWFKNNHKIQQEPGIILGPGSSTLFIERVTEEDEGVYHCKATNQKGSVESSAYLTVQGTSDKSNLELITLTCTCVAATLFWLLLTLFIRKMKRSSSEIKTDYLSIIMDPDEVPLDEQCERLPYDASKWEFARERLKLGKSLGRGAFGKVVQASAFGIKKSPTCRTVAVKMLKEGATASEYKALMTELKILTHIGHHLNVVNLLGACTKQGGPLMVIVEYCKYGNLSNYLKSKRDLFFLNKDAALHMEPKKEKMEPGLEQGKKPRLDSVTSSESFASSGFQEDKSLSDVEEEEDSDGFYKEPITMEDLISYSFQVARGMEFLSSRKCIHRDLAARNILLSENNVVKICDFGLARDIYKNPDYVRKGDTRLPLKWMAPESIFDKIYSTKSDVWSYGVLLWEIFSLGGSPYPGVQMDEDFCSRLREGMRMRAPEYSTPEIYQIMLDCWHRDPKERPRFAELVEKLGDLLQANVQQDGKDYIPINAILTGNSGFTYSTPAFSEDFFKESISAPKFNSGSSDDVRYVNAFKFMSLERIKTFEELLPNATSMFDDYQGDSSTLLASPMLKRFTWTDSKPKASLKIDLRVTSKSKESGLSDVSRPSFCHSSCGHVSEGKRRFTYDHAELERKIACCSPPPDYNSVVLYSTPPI
# Chain of SRSF protein kinase 2 (Homo sapiens) (P78362 whole entry, looked up, canonical isoform): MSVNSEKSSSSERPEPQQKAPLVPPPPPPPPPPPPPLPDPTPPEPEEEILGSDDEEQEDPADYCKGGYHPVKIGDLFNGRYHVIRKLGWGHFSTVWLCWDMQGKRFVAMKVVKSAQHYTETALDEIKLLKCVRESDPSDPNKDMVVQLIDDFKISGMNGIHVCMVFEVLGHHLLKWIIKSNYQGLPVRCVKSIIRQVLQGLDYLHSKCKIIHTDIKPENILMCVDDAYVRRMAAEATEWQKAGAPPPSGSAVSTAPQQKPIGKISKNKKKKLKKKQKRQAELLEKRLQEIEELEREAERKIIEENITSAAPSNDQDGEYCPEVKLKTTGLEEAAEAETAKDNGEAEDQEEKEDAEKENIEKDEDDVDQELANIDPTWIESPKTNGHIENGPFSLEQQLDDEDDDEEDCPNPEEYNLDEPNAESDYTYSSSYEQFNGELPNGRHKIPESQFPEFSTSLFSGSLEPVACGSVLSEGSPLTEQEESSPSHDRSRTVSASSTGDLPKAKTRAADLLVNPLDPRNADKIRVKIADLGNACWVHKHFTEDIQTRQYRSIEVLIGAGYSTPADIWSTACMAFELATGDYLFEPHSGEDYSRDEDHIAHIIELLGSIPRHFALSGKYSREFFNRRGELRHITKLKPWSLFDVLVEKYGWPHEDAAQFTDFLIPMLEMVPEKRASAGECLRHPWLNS
smiles,measurement,setting,value
CC(=O)N1CCC(c2ccc(C(=O)NC3=NCCN3)cc2C(F)(F)F)CC1 [BI 0054],residual activity,[1],100%
same,residual activity,[2],90%
same,residual activity,[3],100%
same,residual activity,[4],95%
same,residual activity,[5],100%
same,residual activity,[6],81%
same,residual activity,[7],100%
same,residual activity,[8],91%
same,residual activity,[9],100%
same,residual activity,[10],100%
same,residual activity,[11],100%
same,residual activity,[12],100%
same,residual activity,[13],100%
same,residual activity,[14],100%
same,residual activity,[15],100%
same,residual activity,[16],100%
same,residual activity,[17],64%
same,residual activity,[18],100%
same,residual activity,[19],93%
same,IC50,[20],> 10 µM (not active)
same,residual activity,[21],100%
same,residual activity,[22],100%
same,residual activity,[23],100%
same,residual activity,[24],81%
same,residual activity,[25],100%
same,residual activity,[26],100%
same,residual activity,[27],100%
same,residual activity,[28],100%
same,residual activity,[29],100%
same,residual activity,[30],100%
same,residual activity,[31],92%
same,residual activity,[32],77%
same,residual activity,[33],100%
same,residual activity,[34],100%
same,residual activity,[35],100%
same,residual activity,[36],100%
same,residual activity,[37],100%
same,residual activity,[38],100%
same,residual activity,[39],100%
same,residual activity,[40],100%
same,residual activity,[41],100%
same,residual activity,[42],87%
same,residual activity,[43],100%
same,residual activity,[44],97%
same,residual activity,[45],100%
CC(=O)N1CCC(c2ccc(C(=O)NC(=N)N)cc2C(F)(F)F)CC1 [BI 9627],residual activity,[1],100%
same,residual activity,[2],92%
same,residual activity,[3],98%
same,residual activity,[4],92%
same,residual activity,[5],99%
same,residual activity,[6],98%
same,residual activity,[7],100%
same,residual activity,[8],99%
same,residual activity,[9],100%
same,residual activity,[10],90%
same,residual activity,[11],100%
same,residual activity,[12],100%
same,residual activity,[13],100%
same,residual activity,[14],100%
same,residual activity,[15],100%
same,residual activity,[16],100%
same,residual activity,[17],76%
same,residual activity,[18],100%
same,residual activity,[19],72%
same,IC50,[20],> 16 µM (not active)
same,residual activity,[21],100%
same,residual activity,[22],100%
same,residual activity,[23],90%
same,residual activity,[24],100%
same,residual activity,[25],100%
same,residual activity,[26],100%
same,residual activity,[27],100%
same,residual activity,[28],90%
same,residual activity,[29],100%
same,residual activity,[30],100%
same,residual activity,[31],95%
same,residual activity,[32],96%
same,residual activity,[33],100%
same,residual activity,[34],86%
same,residual activity,[35],94%
same,residual activity,[36],100%
same,residual activity,[37],100%
same,residual activity,[38],78%
same,residual activity,[39],100%
same,residual activity,[40],96%
same,residual activity,[41],0%
same,residual activity,[42],76%
same,residual activity,[43],100%
same,residual activity,[44],100%
same,residual activity,[45],100%
